ChEMBL document CHEMBL1137936, “Optimization of the indolyl quinolinone class of KDR (VEGFR-2) kinase inhibitors: effects of 5-amido- and 5-sulphonamido-indolyl groups on pharmacokinetics and hERG binding” (Bioorg Med Chem Lett, 2004)

How the values were obtained:
[1] = Plasma clearance in dogs; type: ADME, organism-based, Canis lupus familiaris; conditions: dog
[2] = Compound was tested for the inhibition of VEGF-stimulated mitogenesis as determined in human umbilical vein endothelial cells; type: functional, cell-based; conditions: endothelial cell
[3] = target: T1, Voltage-gated inwardly rectifying potassium channel KCNH2 (Homo sapiens, UniProt Q12809); experiment: Affinity for HERG voltage-gated potassium channel subunit Kv11.1
[4] = Half life in dog plasma; type: ADME, organism-based, Canis lupus familiaris
[5] = target: Vascular endothelial growth factor receptor 2 (Homo sapiens, UniProt P35968); experiment: Inhibition of VEGF receptor 2 mediated phosphorylation of poly-Glu/Tyr (4:1)
[6] = Oral bioavailability in rat (dose 10 mg/kg p.o.); type: ADME, organism-based; conditions: in vivo
[7] = Cmax in rat after administration of 2 mg/kg iv; type: ADME, organism-based; parameters: dose 2 mg/kg, route intravenous; conditions: in vivo
[8] = Half life in monkey plasma after administration of 1 mg/kg iv; type: ADME, organism-based; parameters: dose 1 mg/kg, route intravenous; conditions: cercopithecidae
[9] = Plasma clearance in monkey after administration of 1 mg/kg iv; type: ADME, organism-based; parameters: dose 1 mg/kg, route intravenous; conditions: cercopithecidae
[10] = Plasma clearance in rat after administration of 2 mg/kg iv; type: ADME, organism-based; parameters: dose 2 mg/kg, route intravenous
[11] = Partition coefficient (logP); type: physicochemical; conditions: octanol/water
[12] = Oral bioavailability in dog (dose 1 mg/kg p.o.); type: ADME, organism-based, Canis lupus familiaris; conditions: in vivo
[13] = Volume distribution in rat after administration of 2 mg/kg iv; type: ADME, organism-based; parameters: dose 2 mg/kg, route intravenous; conditions: in vivo, read-out: Vss
[14] = Cmax in dog after administration of 1 mg/kg iv; type: ADME, organism-based, Canis lupus familiaris; parameters: dose 1 mg/kg, route intravenous; conditions: in vivo
[15] = Volume distribution in monkey after administration of 1 mg/kg iv; type: ADME, organism-based; parameters: dose 1 mg/kg, route intravenous; conditions: cercopithecidae, in vivo, read-out: Vss
[16] = Half life in dog plasma after administration of 1 mg/kg iv; type: ADME, organism-based, Canis lupus familiaris; parameters: dose 1 mg/kg, route intravenous
[17] = Half life in rat plasma after administration of 2 mg/kg iv; type: ADME, organism-based; parameters: dose 2 mg/kg, route intravenous
[18] = Oral bioavailability in monkey (dose 1 mg/kg p.o.); type: ADME, organism-based; conditions: cercopithecidae, in vivo
[19] = Cmax in monkey after administration of 1 mg/kg iv; type: ADME, organism-based; parameters: dose 1 mg/kg, route intravenous; conditions: cercopithecidae, in vivo
[20] = Volume distribution in dog after administration of 1 mg/kg iv; type: ADME, organism-based, Canis lupus familiaris; parameters: dose 1 mg/kg, route intravenous; conditions: in vivo, read-out: Vss
[21] = Plasma clearance in dog after administration of 1 mg/kg iv; type: ADME, organism-based, Canis lupus familiaris; parameters: dose 1 mg/kg, route intravenous
[22] = Plasma clearance in dog after administration of 0.25 mg/kg iv; type: ADME, organism-based, Canis lupus familiaris; parameters: dose 0.25 mg/kg, route intravenous
[23] = target: T1, Voltage-gated inwardly rectifying potassium channel KCNH2; experiment: Effect on prolongation of the heart rate-corrected QT interval; type: functional
[24] = Half life in dog plasma after administration of 0.25 mg/kg iv; type: ADME, organism-based, Canis lupus familiaris; parameters: dose 0.25 mg/kg, route intravenous
[25] = Oral bioavailability in rat after administration of 10 mg/kg po; type: ADME, organism-based; conditions: in vivo

T1 sequence (Q12809 whole entry): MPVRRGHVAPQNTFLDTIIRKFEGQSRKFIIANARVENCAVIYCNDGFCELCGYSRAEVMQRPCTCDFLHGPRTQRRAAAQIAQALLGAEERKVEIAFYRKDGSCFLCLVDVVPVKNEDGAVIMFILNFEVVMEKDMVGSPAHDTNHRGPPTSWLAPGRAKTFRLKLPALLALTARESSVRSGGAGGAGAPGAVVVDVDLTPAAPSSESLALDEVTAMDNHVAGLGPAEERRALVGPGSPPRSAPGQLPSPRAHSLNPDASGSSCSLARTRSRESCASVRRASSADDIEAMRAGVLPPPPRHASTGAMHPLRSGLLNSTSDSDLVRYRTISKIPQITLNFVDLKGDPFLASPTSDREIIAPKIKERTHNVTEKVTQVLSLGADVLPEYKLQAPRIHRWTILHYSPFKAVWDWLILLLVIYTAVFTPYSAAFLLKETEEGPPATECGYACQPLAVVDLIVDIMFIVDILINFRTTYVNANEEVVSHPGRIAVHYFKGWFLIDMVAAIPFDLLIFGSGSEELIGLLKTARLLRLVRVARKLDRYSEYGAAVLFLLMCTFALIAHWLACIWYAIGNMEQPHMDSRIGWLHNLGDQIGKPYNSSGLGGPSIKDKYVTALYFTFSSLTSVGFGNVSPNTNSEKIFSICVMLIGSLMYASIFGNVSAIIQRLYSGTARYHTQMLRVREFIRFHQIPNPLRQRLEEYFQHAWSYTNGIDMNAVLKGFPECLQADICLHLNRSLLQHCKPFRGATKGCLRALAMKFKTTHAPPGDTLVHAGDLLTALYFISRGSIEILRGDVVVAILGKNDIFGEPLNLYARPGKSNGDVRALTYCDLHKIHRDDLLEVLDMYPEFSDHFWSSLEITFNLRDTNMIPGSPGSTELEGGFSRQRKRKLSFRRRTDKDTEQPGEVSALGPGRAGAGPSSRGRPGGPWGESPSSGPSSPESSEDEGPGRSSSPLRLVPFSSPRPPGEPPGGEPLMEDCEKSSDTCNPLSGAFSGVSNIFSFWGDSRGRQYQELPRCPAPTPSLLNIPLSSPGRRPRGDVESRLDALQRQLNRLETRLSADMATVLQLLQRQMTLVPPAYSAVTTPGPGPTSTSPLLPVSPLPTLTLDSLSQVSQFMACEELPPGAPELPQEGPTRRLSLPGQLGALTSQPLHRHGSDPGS
Chain of Vascular endothelial growth factor receptor 2 (P35968 whole entry): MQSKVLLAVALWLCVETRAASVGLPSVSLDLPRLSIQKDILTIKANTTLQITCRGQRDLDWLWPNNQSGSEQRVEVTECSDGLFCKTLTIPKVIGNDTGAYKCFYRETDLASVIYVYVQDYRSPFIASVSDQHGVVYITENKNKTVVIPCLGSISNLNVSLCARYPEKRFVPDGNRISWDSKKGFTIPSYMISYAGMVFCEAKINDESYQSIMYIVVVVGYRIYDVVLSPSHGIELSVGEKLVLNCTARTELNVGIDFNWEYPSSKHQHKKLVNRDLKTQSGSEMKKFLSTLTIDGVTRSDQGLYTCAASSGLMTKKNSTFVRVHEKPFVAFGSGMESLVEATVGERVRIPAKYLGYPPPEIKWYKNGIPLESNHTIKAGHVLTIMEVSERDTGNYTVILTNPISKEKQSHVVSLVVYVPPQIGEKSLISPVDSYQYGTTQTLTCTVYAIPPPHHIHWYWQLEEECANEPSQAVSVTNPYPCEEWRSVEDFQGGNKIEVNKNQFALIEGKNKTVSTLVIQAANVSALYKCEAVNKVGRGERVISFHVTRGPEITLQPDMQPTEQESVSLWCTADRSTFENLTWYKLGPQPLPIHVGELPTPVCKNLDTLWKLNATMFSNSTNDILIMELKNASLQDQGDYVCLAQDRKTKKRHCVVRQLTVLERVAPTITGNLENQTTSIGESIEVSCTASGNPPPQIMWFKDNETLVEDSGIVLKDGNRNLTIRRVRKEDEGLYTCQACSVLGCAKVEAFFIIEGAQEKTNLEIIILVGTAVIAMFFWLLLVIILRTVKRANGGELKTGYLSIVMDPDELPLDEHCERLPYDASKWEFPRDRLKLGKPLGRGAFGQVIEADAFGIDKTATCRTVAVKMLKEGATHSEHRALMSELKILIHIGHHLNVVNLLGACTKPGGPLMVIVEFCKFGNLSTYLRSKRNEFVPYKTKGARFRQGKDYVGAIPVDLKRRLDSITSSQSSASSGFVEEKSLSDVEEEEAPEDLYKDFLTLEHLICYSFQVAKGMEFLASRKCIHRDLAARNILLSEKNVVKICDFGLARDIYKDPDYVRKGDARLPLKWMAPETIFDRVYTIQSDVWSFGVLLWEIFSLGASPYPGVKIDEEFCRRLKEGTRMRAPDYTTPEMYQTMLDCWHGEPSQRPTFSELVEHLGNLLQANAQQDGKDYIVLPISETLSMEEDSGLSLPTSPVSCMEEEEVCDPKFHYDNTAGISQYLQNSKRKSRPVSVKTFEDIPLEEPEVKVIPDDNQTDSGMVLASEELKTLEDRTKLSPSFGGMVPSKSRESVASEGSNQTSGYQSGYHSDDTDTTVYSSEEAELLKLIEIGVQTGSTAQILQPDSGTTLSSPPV

SMILES: NC1CCN(C(=O)c2ccc3[nH]c(-c4cc5ccccc5nc4O)cc3c2)C1 (stereo not given)
- clearance [1]: 26 mL/min/kg
- IC50 [2]: 4 nM
- IP [3]: > 10000 nM
- half-life [4]: 1.1 h
- IC50 [5]: 5 nM

SMILES: CN1CCN(S(=O)(=O)c2ccc3[nH]c(-c4cc5ccccc5nc4O)cc3c2)CC1
- bioavailability [6]: 54%
- Cmax [7]: 4800 nM
- clearance [1]: 0.5 mL/min/kg
- half-life [8]: 3.4 h
- clearance [9]: 12 mL/min/kg
- clearance [10]: 29 mL/min/kg
- logP [11]: 3
- bioavailability [12]: 63%
- IC50 [2]: 31 nM
- Vd [13]: 0.9 L/kg
- IP [3]: 3440 nM
- Cmax [14]: 5200 nM
- Vd [15]: 2.1 L/kg
- half-life [16]: 6.4 h
- half-life [17]: 1.1 h
- half-life [4]: 6.4 h
- bioavailability [18]: 40%
- IC50 [5]: 10 nM
- Cmax [19]: 630 nM
- Vd [20]: 0.3 L/kg
- clearance [21]: 0.5 mL/min/kg

SMILES: O=c1[nH]c2ccccc2cc1-c1nc2ccccc2[nH]1
- IC50 [2]: 1140 nM

SMILES: COCCN(C)CCOc1ccc2[nH]c(-c3cc4ccccc4nc3O)cc2c1
- Cmax [7]: 470 nM
- clearance [1]: > 50 mL/min/kg
- clearance [22]: > 50 mL/min/kg
- clearance [10]: 56 mL/min/kg
- logP [11]: 3.1
- IC50 [2]: 8 nM
- EC10 [23]: 1900 nM
- Vd [13]: 5 L/kg
- half-life [24]: < 1 h
- IP [3]: 1950 nM
- half-life [17]: 1.4 h
- half-life [4]: < 1 h
- bioavailability [25]: 20%
- IC50 [5]: 7 nM

SMILES: O=C(O)C1CCN(CCCOc2ccc3[nH]c(-c4cc5ccccc5nc4O)cc3c2)CC1
- clearance [1]: 7.7 mL/min/kg
- logP [11]: 0.9
- IC50 [2]: 41 nM
- EC10 [23]: 5200 nM
- IP [3]: 3050 nM
- half-life [4]: 3.2 h
- IC50 [5]: 8 nM

SMILES: O=c1[nH]c2ccccc2cc1-c1cc2cc(S(=O)(=O)N3CCNCC3)ccc2[nH]1
- clearance [1]: 3.5 mL/min/kg
- logP [11]: 2.3
- IC50 [2]: 30 nM
- IP [3]: 2450 nM
- half-life [4]: 12.7 h
- IC50 [5]: 11 nM

SMILES: CC(=O)N1CCN(CCOc2ccc3[nH]c(-c4cc5ccccc5nc4O)cc3c2)CC1
- clearance [1]: 7.8 mL/min/kg
- logP [11]: 3.2
- IC50 [2]: 4 nM
- IP [3]: 520 nM
- half-life [4]: 2.2 h
- IC50 [5]: 4 nM

SMILES: O=C(c1ccc2[nH]c(-c3cc4ccccc4nc3O)cc2c1)N1CCNCC1
- clearance [1]: 27 mL/min/kg
- logP [11]: 1.7
- IC50 [2]: 4 nM
- IP [3]: > 10000 nM
- half-life [4]: 4.2 h
- IC50 [5]: 5 nM

SMILES: O=c1[nH]c2ccccc2cc1-c1cc2ccccc2[nH]1
- IC50 [2]: 184 nM

SMILES: NC1CCN(S(=O)(=O)c2ccc3[nH]c(-c4cc5ccccc5nc4O)cc3c2)C1 (stereo not given)
- clearance [1]: 11 mL/min/kg
- IC50 [2]: 27 nM
- IP [3]: 2650 nM
- half-life [4]: 3.4 h
- IC50 [5]: 16 nM

SMILES: CN1CCN(C(=O)c2ccc3[nH]c(-c4cc5ccccc5nc4O)cc3c2)CC1
- bioavailability [6]: 31%
- Cmax [7]: 5790 nM
- clearance [1]: 19 mL/min/kg
- half-life [8]: 2.8 h
- clearance [9]: 3.4 mL/min/kg
- clearance [10]: 3.8 mL/min/kg
- logP [11]: 2.6
- bioavailability [12]: 15%
- IC50 [2]: 4 nM
- Vd [13]: 0.7 L/kg
- IP [3]: 10800 nM
- Cmax [14]: 160 nM
- Vd [15]: 0.9 L/kg
- half-life [16]: 2.4 h
- half-life [17]: 2.3 h
- half-life [4]: 2.4 h
- bioavailability [18]: 46%
- IC50 [5]: 5 nM
- Cmax [19]: 1250 nM
- Vd [20]: 2.9 L/kg
- clearance [21]: 19 mL/min/kg

SMILES: O=C(NC1CCNC1)c1ccc2[nH]c(-c3cc4ccccc4nc3O)cc2c1 (stereo not given)
- clearance [1]: 38 mL/min/kg
- IC50 [2]: 53 nM
- IP [3]: 13700 nM
- half-life [4]: 1.7 h
- IC50 [5]: 6 nM

SMILES: Oc1nc2ccccc2cc1-c1cc2cc(OCCN3CCCCC3)ccc2[nH]1
- clearance [1]: > 50 mL/min/kg
- logP [11]: 3.7
- IC50 [2]: 17 nM
- EC10 [23]: 640 nM
- IP [3]: 980 nM
- half-life [4]: 1.3 h
- IC50 [5]: 4 nM

SMILES: O=c1[nH]c2ccccc2cc1-c1cc2cc(S(=O)(=O)NC3CCNC3)ccc2[nH]1 (stereo not given)
- clearance [1]: 0.4 mL/min/kg
- IC50 [2]: 97 nM
- IP [3]: 2835 nM
- half-life [4]: 9.5 h
- IC50 [5]: 14 nM
